Assay [1] deals with enzyme associated with Bacillus stearothermophilus spores. Nature of the assay: Rapid enzyme fluorescence readout of dual rapid readout indicators after prevacuum steam sterilization. Type of assay: biochemical. The note with it: 4-pulse prevacuum steam 121° C., 7–13 min. How it is done:
(§1) The indicators prepared for the Examples were dual rapid readout indicators that provided both a rapid, enzyme-based efficacy test and a confirmatory spore outgrowth test. Spores coated on the carrier strip 16 served as the source of active enzyme whose activity was measured by the rapid enzyme test. These same spores were then incubated in the spore outgrowth portion of the test.
(§2) Bacillus stearothermophilus, commercially available as ATCC 7953 from American Type Culture Collection, Rockville, Md., was grown overnight (16 hours) at 58° C. in tryptic soy broth. This culture was used to inoculate the surface of agar plates consisting of 8 g/l nutrient broth, 4 g/l yeast extract, 0.1 g/l manganese chloride and 20 g/l agar at pH 7.2. Plates were incubated at 58° C. for 72 hours. Spores were scraped from the plates and suspended in sterile distilled water. The spores were separated from the vegetative debris by centrifuging the suspension at 7000 rpm and 4° C. for 20 minutes. The supernatant was poured off and the spores were resuspended in sterile distilled water. The cleaning procedure was repeated several times. After the final wash, the spores were suspended in sterile distilled water, at a concentration of approximately 1×10^8 spores per milliliter.
(§3) The spores were then treated with the chemicals identified in Tables 1–5. All chemicals tested were obtained from commercial sources. The spores were centrifuged at 6000 rpm for 10 minutes. The supernatant and coating chemical mixtures were heated at 60–80° C. for several minutes and vortexed to get the material into solution. The spores were then mixed into the sterilant-resistant chemical solution. The sterilant-resistant chemical solution was applied to 5×25 mm, 591 A paper strips (Schleicher & Schuell, Inc., Keene, N.H.) by pipetting 10–15 microliters to each strip for a final population of about 1×10^6 spores per strip. The strips were dried 16 hours at 37° C.
(§4) The treated spore strips were placed on the bottom of the outer container 12 of the indicator 10 and a barrier was inserted between the spore strip 16 and the inner container 18, which contained enzyme substrate. A […] ( 11/16 inch) disc of polypropylene blown microfiber material, with a weight of 200 g/m^2, commercially available as “THINSULATE™ 200-B brand Thermal Insulation” from 3M Company, St. Paul, Minn., was used as the barrier. The inner container 18 contained 0.67 ml nutrient medium, consisting of 17 g of a bacteriological peptone and a 0.17 g/l of L-alanine, as well as 0.1 g 4-methylumbelliferyl-alpha-D-glucoside, commercially available from Sigma Chemical Company, St. Louis, Mo., dissolved in 200 microliters of N,N-dimethylformamide, and 0.03 g bromocresol purple pH indicator dye, per liter of water. The pH of the enzyme substrate and nutrient medium solution was adjusted to 7.6 with 0.1N sodium hydroxide.
(§5) Sterilization indicators were made as described above with each of the chemicals and concentrations described in Table 1. Control indicators were made using untreated spores. The indicators were placed in metal instrument trays and exposed at 121° C. in a Getinge Steam Sterilizer (Getinge International, Inc., 1100 Towbin Ave., Lakewood, N.J.) using a 4-pulse prevacuum cycle at 121° C. with a vacuum level of 0.075–0.085 bar and a steam pulse to 1.00 bar for each pulse. Indicators were exposed in the sterilizer for between 7 and 13 minutes. This cycle is depicted in the time-pressure diagram in FIG. 5. After exposure the inner containers containing the enzyme substrate and nutrient medium were crushed and the indicators were incubated at 60° C. The indicators were examined for fluorescence using a 3M™ ATTEST™ Model 190 Rapid Autoreader, commercially available from 3M Company, St. Paul, Minn. Additionally, spore growth, as indicated by a color change from purple to yellow, was determined visually after 168 hours of incubation at 60° C. […]

Assay [2] has as its system Bacillus stearothermophilus spores. Put plainly: Spore outgrowth (color change) of indicators after prevacuum steam sterilization. Format: cell-based. The note with it: 4-pulse prevacuum steam 121° C., 7–13 min. How it is done:
as §1, §2, §3, §4, §5

Experimental findings from US7045343B2, “Sterilization indicator test packs” (3M Innovative Properties Company, priority 1998, dated 2006) are described below.

Take `OCC(O)COCC(O)COCC(O)COCC(O)COCC(O)COCC(O)COCC(O)COCC(O)COCC(O)COCC(O)CO` (centres unmarked) [Decaglycerol]: the “FLUORESCENCE - PERCENT POSITIVE 1 HR” value is listed as 0% in assay [1] (Example 2, 5 mg/ml coating); 0% in assay [1] (Example 2, 10 mg/ml coating); 0% in assay [1] (Example 2, 20 mg/ml coating); 0% in assay [1] (Example 2, 40 mg/ml coating); 0% in assay [1] (Example 2, 80 mg/ml coating); 0% in assay [1] (Example 2, 100 mg/ml coating). Moreover, the “FLUORESCENCE - PERCENT POSITIVE 2 HR” value in assay [1] (Example 2, 5 mg/ml coating) is given as 0%; in assay [1] (Example 2, 10 mg/ml coating), 0%; in assay [1] (Example 2, 20 mg/ml coating) it was 0%; in assay [1] (Example 2, 40 mg/ml coating) it was 0%; in assay [1] (Example 2, 80 mg/ml coating) it was 12.0%; in assay [1] (Example 2, 100 mg/ml coating), 6.9%. For the same molecule, the “FLUORESCENCE - PERCENT POSITIVE 3 HR” value stood at 0% in assay [1] (Example 2, 5 mg/ml coating); 7.7% in assay [1] (Example 2, 10 mg/ml coating); 9.1% in assay [1] (Example 2, 20 mg/ml coating); 7.7% in assay [1] (Example 2, 40 mg/ml coating); 36.0% in assay [1] (Example 2, 80 mg/ml coating); 48.3% in assay [1] (Example 2, 100 mg/ml coating). For the same molecule, the “FLUORESCENCE - PERCENT POSITIVE 4 HR” value in assay [1] (Example 2, 5 mg/ml coating) is 23.1%; in assay [1] (Example 2, 10 mg/ml coating), 23.1%; in assay [1] (Example 2, 20 mg/ml coating), 18.2%; in assay [1] (Example 2, 40 mg/ml coating), 42.3%; in assay [1] (Example 2, 80 mg/ml coating) it was 64.0%; in assay [1] (Example 2, 100 mg/ml coating), 69.0%. Also, the “FLUORESCENCE - PERCENT POSITIVE 5 HR” value in assay [1] (Example 2, 5 mg/ml coating) is given as 23.1%; in assay [1] (Example 2, 10 mg/ml coating), 23.1%; in assay [1] (Example 2, 20 mg/ml coating), 45.5%; in assay [1] (Example 2, 40 mg/ml coating), 46.2%; in assay [1] (Example 2, 80 mg/ml coating), 72.0%; in assay [1] (Example 2, 100 mg/ml coating) it was 79.3%. Also, the “FLUORESCENCE - PERCENT POSITIVE 6 HR” value in assay [1] (Example 2, 5 mg/ml coating) is listed as 30.8%; in assay [1] (Example 2, 10 mg/ml coating) it was 30.8%; in assay [1] (Example 2, 20 mg/ml coating), 63.6%; in assay [1] (Example 2, 40 mg/ml coating) it was 53.8%; in assay [1] (Example 2, 80 mg/ml coating) it was 76.0%; in assay [1] (Example 2, 100 mg/ml coating), 89.7%. Further, the “NO. GROWTH POSITIVE 168 HR” value in assay [2] (Example 2, 5 mg/ml coating) is 13; in assay [2] (Example 2, 10 mg/ml coating) it was 13; in assay [2] (Example 2, 20 mg/ml coating) it was 11; in assay [2] (Example 2, 40 mg/ml coating), 26; in assay [2] (Example 2, 80 mg/ml coating), 25; in assay [2] (Example 2, 100 mg/ml coating), 29.

Regarding POE(5) Glyceryl Monooleate, in assay [1] (Example 5, 50 mg/ml coating), the “FLUORESCENCE - PERCENT POSITIVE 1 HR” value is given as 0%, the “FLUORESCENCE - PERCENT POSITIVE 2 HR” value was determined as 0%, the “FLUORESCENCE - PERCENT POSITIVE 3 HR” value was determined as 0% and the “FLUORESCENCE - PERCENT POSITIVE 4 HR” value was 0%. In assay [1] (Example 5, 100 mg/ml coating), the “FLUORESCENCE - PERCENT POSITIVE 1 HR” value is listed as 0%, the “FLUORESCENCE - PERCENT POSITIVE 2 HR” value is 0%, the “FLUORESCENCE - PERCENT POSITIVE 3 HR” value is given as 0% and the “FLUORESCENCE - PERCENT POSITIVE 4 HR” value is 0%. For the same molecule, the “NO. GROWTH POSITIVE 168 HR” value in assay [2] (Example 5, 50 mg/ml coating) is 2. The “NO. GROWTH POSITIVE 168 HR” value in assay [2] (Example 5, 100 mg/ml coating) came to 2.

Turning to POE(60) Sorbitol Tetraoleate, in assay [1] (Example 5, 50 mg/ml coating), the “FLUORESCENCE - PERCENT POSITIVE 1 HR” value was 0%, the “FLUORESCENCE - PERCENT POSITIVE 2 HR” value came to 0%, the “FLUORESCENCE - PERCENT POSITIVE 3 HR” value is 0% and the “FLUORESCENCE - PERCENT POSITIVE 4 HR” value came to 0%. Moreover, in assay [1] (Example 5, 100 mg/ml coating), the “FLUORESCENCE - PERCENT POSITIVE 1 HR” value amounted to 0%, the “FLUORESCENCE - PERCENT POSITIVE 2 HR” value came to 0%, the “FLUORESCENCE - PERCENT POSITIVE 3 HR” value is 0% and the “FLUORESCENCE - PERCENT POSITIVE 4 HR” value is reported as 0%. For the same molecule, in assay [2] (Example 5, 50 mg/ml coating), the “NO. GROWTH POSITIVE 168 HR” value was 2. Moreover, the “NO. GROWTH POSITIVE 168 HR” value in assay [2] (Example 5, 100 mg/ml coating) turned out to be 2.
